US7332504B2, “Heterocyclic substituted aminoazacycles useful as central nervous system agents” (Abbott Laboratories, priority 1999, dated 2008)
pKi: −log10 of the molar value. Structures can show the parent of a compound that is named as a salt.

What was measured:
[1] = molecular target: T1, neuronal nicotinic acetylcholine receptors (Rattus norvegicus, UniProt P09483+P12390); assay: Binding of [3H]-cytisine to neuronal nicotinic acetylcholine receptors, crude synaptic membranes from whole rat brain
T1 construct: crude synaptic membrane preparations from whole rat brain; from tissue; host or cells: whole rat brain, crude synaptic membranes
T1 sequence (P09483 31-630): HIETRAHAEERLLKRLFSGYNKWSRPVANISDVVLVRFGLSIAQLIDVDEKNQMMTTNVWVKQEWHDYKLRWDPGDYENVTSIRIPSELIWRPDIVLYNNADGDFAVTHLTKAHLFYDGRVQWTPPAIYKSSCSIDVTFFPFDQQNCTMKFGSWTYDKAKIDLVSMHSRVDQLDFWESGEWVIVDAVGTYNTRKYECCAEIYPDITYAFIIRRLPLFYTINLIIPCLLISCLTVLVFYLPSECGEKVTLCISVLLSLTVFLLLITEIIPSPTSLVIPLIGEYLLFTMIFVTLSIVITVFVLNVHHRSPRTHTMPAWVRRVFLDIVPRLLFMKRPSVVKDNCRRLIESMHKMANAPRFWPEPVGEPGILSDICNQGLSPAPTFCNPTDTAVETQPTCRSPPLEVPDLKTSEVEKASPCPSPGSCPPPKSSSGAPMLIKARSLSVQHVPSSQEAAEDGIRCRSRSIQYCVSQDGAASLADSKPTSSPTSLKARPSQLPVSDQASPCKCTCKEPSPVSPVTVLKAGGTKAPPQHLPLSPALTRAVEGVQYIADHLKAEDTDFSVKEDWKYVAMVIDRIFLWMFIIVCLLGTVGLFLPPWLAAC
T1 sequence (P12390 25-500): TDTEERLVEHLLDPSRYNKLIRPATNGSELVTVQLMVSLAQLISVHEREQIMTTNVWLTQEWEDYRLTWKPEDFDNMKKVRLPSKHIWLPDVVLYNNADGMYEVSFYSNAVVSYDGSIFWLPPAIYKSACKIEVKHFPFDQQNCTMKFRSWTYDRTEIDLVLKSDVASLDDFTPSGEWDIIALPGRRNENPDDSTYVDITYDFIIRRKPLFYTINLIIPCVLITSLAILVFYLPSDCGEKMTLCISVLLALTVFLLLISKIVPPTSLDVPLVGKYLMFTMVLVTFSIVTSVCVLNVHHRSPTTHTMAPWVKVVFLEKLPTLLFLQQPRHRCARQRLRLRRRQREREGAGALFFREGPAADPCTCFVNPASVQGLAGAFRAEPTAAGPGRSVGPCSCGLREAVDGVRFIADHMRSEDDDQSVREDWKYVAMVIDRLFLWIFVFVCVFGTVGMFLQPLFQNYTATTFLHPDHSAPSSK
Protocol: The In Vitro protocols for determination of nicotinic acetylcholine channel receptor binding potencies of ligands were determined as follows.
Binding of [^3H]-cytisine ([^3 H]-CYT) to neuronal nicotinic acetylcholine receptors was accomplished using crude synaptic membrane preparations from whole rat brain (Pabreza et al., Molecular Pharmacol., 1990, 39:9). Washed membranes were stored at —80° C. prior to use. Frozen aliquots were slowly thawed and resuspended in 20 volumes of buffer (containing: 120 mM NaCl, 5 mM KCl, 2 mM MgCl2, 2 mM CaCl2 and 50 mM Tris-Cl, pH 7.4 @4° C.). After centrifuging at 20,000×g for 15 minutes, the pellets were resuspended in 30 volumes of buffer.
The test compounds were dissolved in water to make 10 mM stock solutions. Each solution was then diluted (1:100) with buffer (as above) and further taken through seven serial log dilutions of produce test solution from 10^−5 to 10^−11 M.
Homogenate (containing 125-150 μg protein) was added to triplicate tubes containing the range of concentrations of test compound described above and [^3H]-CYT (1.25 nM) in a final volume of 500 μL. Samples were incubated for 60 minutes at 4° C., then rapidly filtered through Whatman GF/B filters presoaked in 0.5% polyethyleneimine using 3×4 mL of ice-cold buffer. The filter are counted in 4 mL of Ecolume® (ICN). Nonspecific binding was determined in the presence of 10 μM (−)-nicotine and values were expressed as a percentage of total binding. IC50 values were determined with the RS-1 (BBN) nonlinear least squares curve-fitting program and IC50 values were converted to Ki values using the Cheng and Prusoff correction ([…].

mouse hot plate paradigm = assay: Mouse hot plate paradigm (analgesia); type: in vivo; details: ip, 0.5 h, mice, intraperitoneal, dosed 30 minutes prior to testing, hot plate 55° C., increase in tenth jump latency relative to control, read-out: minimally effective dose (MED)
Protocol: An in vivo protocol was utilized to determine the effectiveness of nicotinic acetylcholine receptor ligands as analgesic agents in the mouse hot plate paradigm.
Separate groups of mice, (n=8/group) were utilized for each dose group. All drugs were administered by the intraperitoneal route of administration. Test drugs were dissolved in water to make a 6.2 mM stock solution. Animals were dosed with this solution (10 mL/kg body weight) for a 62 micromol/kg dose. Lower doses were administered similarly, following serial dilution of the stock solution in half-log increments. Animals were dosed 30 minutes prior to testing in the hot plate. The hot-plate utilized was an automated analgesia monitor (Model #AHP16AN, Omnitech Electronics, Inc. of Columbus, Ohio). The temperature of the hot plate was maintained at 55° C. and a cut-off time of 180 seconds was utilized. Latency until the tenth jump was recoreded as the dependent measure. An increase in the tenth jump latency relative to the control was considered an effect.

For `N[C@H]1CCN(c2ccc(Cl)nc2)C1` (as salt: hydrochloride) [Example 2, (3S)-1-(6-chloro-3-pyridinyl)pyrrolidinylamine dihydrochloride], the melting point was over 250 °C.

For `CN[C@@H]1CCN(c2ccc(Cl)nc2)C1` (as salt: hydrochloride) [Example 5, N-[(3R)-1-(6-chloro-3-pyridinyl)pyrrolidinyl]-N-methylamine hydrochloride], the melting point was 265 °C (dec.).

`N[C@@H]1CCN(c2cncc(C(F)(F)F)c2)C1` (as salt: hydrochloride) [Example 11, (3R)-1-[5-(trifluoromethyl)-3-pyridinyl]pyrrolidinylamine dihydrochloride] gave a melting point of 234 to 235 °C.

For `CN[C@@H]1CCN(c2cncc(C(F)(F)F)c2)C1` (as salt: hydrochloride) [Example 12, N-methyl-N-{(3R)-1-[5-(trifluoromethyl)-3-pyridinyl]pyrrolidinyl}amine hydrochloride], the melting point was 265 °C (dec.).

In the case of `N[C@H]1CCN(c2cncc(C(F)(F)F)c2)C1` (as salt: hydrochloride) [Example 13, (3S)-1-[5-(trifluoromethyl)-3-pyridinyl]pyrrolidinylamine dihydrochloride], the melting point was 235 to 236 °C.

For `CN[C@H]1CCN(c2cncc(C(F)(F)F)c2)C1` (as salt: hydrochloride) [Example 14, N-methyl-N-{(3S)-1-[5-(trifluoromethyl)-3-pyridinyl]pyrrolidinyl}amine hydrochloride], the melting point was 240 to 243 °C (dec.).

Compound `CN[C@H]1CCCN(c2ccc(Cl)nc2)C1` (as salt: hydrochloride) [Example 46, N-[(3S)-1-(6-chloro-3-pyridinyl)piperidin-3-yl]-N-methylamine dihydrochloride] has a melting point of 120 to 122 °C.

In the case of `CN[C@@H]1CCCN(c2ccc(Cl)nc2)C1.Cl.Cl` [Example 48, N-[(3R)-1-(6-chloro-3-pyridinyl)piperidin-3-yl]-N-methylamine dihydrochloride], the pKi [1] was 6.78 and the melting point was 103 to 105 °C.

In the case of `CN[C@H]1CCCN(c2cnc(Cl)c(C)c2)C1.Cl` [Example 49, N-[(3S)-1-(6-chloro-5-methyl-3-pyridinyl)piperidin-3-yl]-N-methylamine hydrochloride], the pKi [1] was 8.32, the melting point was 75 to 77 °C and the minimal effective dose (mouse hot plate paradigm) was 62 µmol/kg.
